# Article PMC4723341, “Ribonuclease H/DNA Polymerase HIV-1 Reverse Transcriptase Dual Inhibitor: Mechanistic Studies on the Allosteric Mode of Action of Isatin-Based Compound RMNC6” (PLoS ONE, 2016)
# Tests used:
# [1] = target: T1, HIV-1 RT-associated RNase H activity, N474A RT (Human immunodeficiency virus type 1 group M subtype B, UniProt P04585, N1061A); assay: biochemical; type: biochemical, HIV-1 group M subtype B
# T1 construct: The 1:1 ration between the p66/p51 subunits was also verified; made in house; host or cells: E. coli M15
# Method: (§1) HIV RT-associated RNase H activity was measured as described in 100 μL reaction volume containing 50 mM Tris-HCl buffer pH 7.8, 6 mM MgCl2, 1 mM dithiothreitol (DTT), 80 mM KCl, 0.25 μM hybrid RNA/DNA 5'-[…]-Fluorescin-3' (HPLC, dry, QC: Mass Check) (available from Metabion) 5'-Dabcyl-[…]-3'(HPLC, dry, QC: Mass Check), increasing concentrations of inhibitors, whose dilution were made in water, and different amount of enzymes according to a linear range of dose-response curve: 20 ng of WT RT; 60 ng K103N RT; 37.5 ng V106A RT; 75 ng V108A RT; 5 ng Y181C RT; 50 ng Y188A RT; 30 ng Y188L RT; 100 ng E224A RT; 37.5 ng P225A RT; 20 ng P226A RT; 18 ng F227A RT; 30 ng L228A RT; 30 ng W229A RT; 10 ng M230A RT; 30 ng G231A RT; 62.5 ng N474A RT; 1 μg Y501A RT; 100 ng A502F RT; 37.5 ng A508V RT; 38 ng HIV-1 group O RT. The reaction mixture was incubated for 1 h at 37°C, stopped by addition of EDTA and products were measured with a multilabel counter plate reader Victor 3 (Perkin Elmer model 1420–051) equipped with filters for 490/528 nm (excitation/emission wavelength)
# [2] = target: T2, HIV-1 RT-associated RNase H activity, Y501A RT (Human immunodeficiency virus type 1 group M subtype B, UniProt P04585, Y1088A); assay: biochemical; type: biochemical, HIV-1 group M subtype B
# T2 construct: The 1:1 ration between the p66/p51 subunits was also verified; made in house; host or cells: E. coli M15
# Method: as §1
# [3] = target: T3, HIV-1 RT-associated RNase H activity, L228A RT (Human immunodeficiency virus type 1 group M subtype B, UniProt P04585, L815A); assay: RNase H activity assay, L228A RT; type: biochemical, HIV-1 group M subtype B; settings: for Fold of increase of RNase H IC50 with respect to wt RT: L228A RT
# T3 construct: The 1:1 ration between the p66/p51 subunits was also verified; made in house; host or cells: E. coli M15
# Method: (§2) HIV RT-associated RNase H activity was measured as described in 100 μL reaction volume containing 50 mM Tris-HCl buffer pH 7.8, 6 mM MgCl2, 1 mM dithiothreitol (DTT), 80 mM KCl, 0.25 μM hybrid RNA/DNA 5'-GAUCUGAGCCUGGGAGCU-Fluorescin-3' (HPLC, dry, QC: Mass Check) (available from Metabion) 5'-Dabcyl-AGCTCCCAGGCTCAGATC-3'(HPLC, dry, QC: Mass Check), increasing concentrations of inhibitors, whose dilution were made in water, and different amount of enzymes according to a linear range of dose-response curve: 20 ng of WT RT; 60 ng K103N RT; 37.5 ng V106A RT; 75 ng V108A RT; 5 ng Y181C RT; 50 ng Y188A RT; 30 ng Y188L RT; 100 ng E224A RT; 37.5 ng P225A RT; 20 ng P226A RT; 18 ng F227A RT; 30 ng L228A RT; 30 ng W229A RT; 10 ng M230A RT; 30 ng G231A RT; 62.5 ng N474A RT; 1 μg Y501A RT; 100 ng A502F RT; 37.5 ng A508V RT; 38 ng HIV-1 group O RT. The reaction mixture was incubated for 1 h at 37°C, stopped by addition of EDTA and products were measured with a multilabel counter plate reader Victor 3 (Perkin Elmer model 1420–051) equipped with filters for 490/528 nm (excitation/emission wavelength)
# [4] = target: T4, HIV-1 RT-associated RNase H activity, W229A RT (Human immunodeficiency virus type 1 group M subtype B, UniProt P04585, W816A); assay: RNase H activity assay, W229A RT; type: biochemical, HIV-1 group M subtype B; settings: for Fold of increase of RNase H IC50 with respect to wt RT: W229A RT
# T4 construct: The 1:1 ration between the p66/p51 subunits was also verified; made in house; host or cells: E. coli M15
# Method: as §2
# [5] = target: T5, HIV-1 RT-associated RNase H activity, A508V RT (Human immunodeficiency virus type 1 group M subtype B, UniProt P04585, A1095V); assay: RNase H activity assay, A508V RT; type: biochemical, HIV-1 group M subtype B; settings: for Fold of increase of RNase H IC50 with respect to wt RT: A508V RT
# T5 construct: The 1:1 ration between the p66/p51 subunits was also verified; made in house; host or cells: E. coli M15
# Method: as §2
# [6] = target: T6, HIV-1 RT-associated RNase H activity, M230A RT (Human immunodeficiency virus type 1 group M subtype B, UniProt P04585, M817A); assay: RNase H activity assay, M230A RT; type: biochemical, HIV-1 group M subtype B
# T6 construct: The 1:1 ration between the p66/p51 subunits was also verified; made in house; host or cells: E. coli M15
# Method: as §2
# [7] = system: HIV-1 RT-associated RNase H activity, M230A RT; assay: RNase H activity assay, M230A RT; type: biochemical, HIV-1 group M subtype B; settings: M230A RT
# Method: as §2
# [8] = target: T7, HIV-1 RT-associated RNase H activity, G231A RT (Human immunodeficiency virus type 1 group M subtype B, UniProt P04585, G818A); assay: RNase H activity assay, G231A RT; type: biochemical, HIV-1 group M subtype B
# T7 construct: The 1:1 ration between the p66/p51 subunits was also verified; made in house; host or cells: E. coli M15
# Method: as §2
# [9] = system: HIV-1 RT-associated RNase H activity, G231A RT; assay: RNase H activity assay, G231A RT; type: biochemical, HIV-1 group M subtype B; settings: G231A RT
# Method: as §2
# [10] = target: T8, HIV-1 RT-associated RNase H activity, P225A RT (Human immunodeficiency virus type 1 group M subtype B, UniProt P04585, P812A); assay: RNase H activity assay, P225A RT; type: biochemical, HIV-1 group M subtype B; settings: for Fold of increase of RNase H IC50 with respect to wt RT: P225A RT
# T8 construct: The 1:1 ration between the p66/p51 subunits was also verified; made in house; host or cells: E. coli M15
# Method: as §2
# p66/p51 HIV-1 RT = target: T9, p66/p51 HIV-1 RT (Human immunodeficiency virus type 1 group M subtype B, UniProt P04585); assay: Thermal stability by differential scanning fluorimetry; type: binding; settings: increasing concentrations of inhibitor
# T9 construct: The 1:1 ration between the p66/p51 subunits was also verified; made in house; host or cells: E. coli M15
# Method: Thermal stability assays were performed according to Nettleship et al.. […] The mixture was heated from 30 to 90°C in increments of 0.2°C. Fluorescence intensity was measured using excitation and emission wavelengths of 483 and 568 nm, respectively. Changes in protein thermal stability (ΔTm) upon inhibitor binding were analyzed by using the LightCycler 480 software. All assays were performed in triplicate.
# [11] = target: T10, HIV-1 RT-associated RNase H activity, Y188A RT (Human immunodeficiency virus type 1 group M subtype B, UniProt P04585, Y775A); assay: RNase H activity assay, Y188A RT; type: biochemical, HIV-1 group M subtype B; settings: for Fold of increase of RNase H IC50 with respect to wt RT: Y188A RT
# T10 construct: The 1:1 ration between the p66/p51 subunits was also verified; made in house; host or cells: E. coli M15
# Method: as §2
SMILES,IC50 [1] [nM],Fold of increase of RNase H IC50 with respect to wt RT ([1]; N474A RT),IC50 [2] [nM],Fold of increase of RNase H IC50 with respect to wt RT ([2]; Y501A RT),IC50 [3] [nM],Fold of increase of RNase H IC50 with respect to wt RT [3],IC50 [4] [nM],Fold of increase of RNase H IC50 with respect to wt RT [4],IC50 [5] [nM],Fold of increase of RNase H IC50 with respect to wt RT [5],IC50 [6] [nM],Fold of increase of RNase H IC50 with respect to wt RT [7],IC50 [8] [nM],Fold of increase of RNase H IC50 with respect to wt RT [9],IC50 [10] [nM],Fold of increase of RNase H IC50 with respect to wt RT [10],IC50 [11] [nM],Fold of increase of RNase H IC50 with respect to wt RT [11],other results
"N#Cc1ccc(-c2csc(NN=C3C(=O)Nc4ccccc43)n2)cc1 [RMNC6, (Z)-4-(2-(2-(2-oxoindolin-3-ylidene)hydrazinyl)thiazol-4-yl)benzonitrile]",> 100000,> 77,> 100000,> 77,1500 ± 100,1.1,1900 ± 500,1.5,6500 ± 700,5.0,500 ± 100,0.4,1700 ± 400,1.3,1700 ± 200,1.3,3300 ± 1500,2.5,Resistance of RNase H function ([1]; N474A RT): full resistance; Resistance of RNase H function ([2]; Y501A RT): full resistance; Effect on RT thermal stability (p66/p51 HIV-1 RT): did not affect significantly
"CC(C)c1ccc(O)c(=O)c(O)c1 [BTP, β-thujaplicinol, reference compound]",920 ± 10,4.8,70 ± 2,0.4,100 ± 60,0.5,150 ± 80,0.8,160 ± 50,0.8,140 ± 40,0.7,250 ± 30,1.3,130 ± 60,0.7,190 ± 80,1.0,Tm increase of HIV-1 RT (p66/p51 HIV-1 RT; in the presence of Mg2+): < 2.0 °C
